Assay results as given in US11807644B2 (PMV Pharmaceuticals, Inc., priority 2020, dated 2023).

Each compound was assayed against T1, recombinant His-tag Y220C p53 DBD protein (Homo sapiens, UniProt P04637, Y220C) (assay: In vitro DNA binding activity assay (TR-FRET): binding of His-tag Y220C p53 DBD to biotin-labeled consensus DNA). Settings: SC150 = concentration to increase DNA binding by […], His-tag Y220C p53 DBD, biotin-labeled consensus DNA.
T1 construct: recombinant His-tag Y220C p53 DBD protein (amino acids #˜94-312)
Assay type: biochemical

| SMILES | Y220C SC150 (μM) |
| --- | --- |
| CN1CCC(Nc2cccc3c2cc(-c2nc(CNc4ccc(S(C)(=O)=O)cc4)no2)n3CC(F)(F)F)CC1 [Compound 136B, N-(1-methylpiperidin-4-yl)-2-(3-(((4-(methylsulfonyl)phenyl)amino)methyl)-1,2,4-oxadiazol-5-yl)-1-(2,2,2-trifluoroethyl)-1H-indol-4-amine] | * (* = 0 μM ≤ SC150 < 0.1 μM) |
| COc1cc(S(C)(=O)=O)ccc1NCc1nnc(-c2cc3c(N[C@H]4CCN(C)C[C@H]4F)cccc3n2CC(F)(F)F)s1 (racemic) [Compound 27B, (+/−)-N-[(3R,4S)-3-fluoro-1-methylpiperidin-4-yl]-2-(5-{[(4-methanesulfonyl-2-methoxyphenyl)amino]methyl}-1,3,4-thiadiazol-2-yl)-1-(2,2,2-trifluoroethyl)-1H-indol-4-amine] | ** (** = 0.1 μM ≤ SC150 < 0.5 μM) |
| COc1cc(S(C)(=O)=O)ccc1NCc1nnc(-c2cc3c(N[C@H]4CCN(C)C[C@@H]4F)cccc3n2CC(F)(F)F)s1 (racemic) [Compound 28B, (+/−)-N-[(3R,4R)-3-fluoro-1-methylpiperidin-4-yl]-2-(5-{[(4-methanesulfonyl-2-methoxyphenyl)amino]methyl}-1,3,4-thiadiazol-2-yl)-1-(2,2,2-trifluoroethyl)-1H-indol-4-amine] | * (* = 0 μM ≤ SC150 < 0.1 μM) |
| CN1CC[C@@H](Nc2cccc3c2cc(-c2noc(CNC(=O)c4ccsc4)n2)n3CC(F)(F)F)[C@@H](F)C1 [Compound 189B, N-{[3-(4-{[(3S,4R)-3-fluoro-1-methylpiperidin-4-yl]amino}-1-(2,2,2-trifluoroethyl)-1H-indol-2-yl)-1,2,4-oxadiazol-5-yl]methyl}thiophene-3-carboxamide] | * (* = 0 μM ≤ SC150 < 0.1 μM) |
| CN1CC[C@@H](Nc2cccc3c2cc(-c2noc(CNC(=O)c4ccn(CC5CC5)c4)n2)n3CC(F)(F)F)[C@@H](F)C1 [Compound 241B, 1-(cyclopropylmethyl)-N-{[3-(4-{[(3S,4R)-3-fluoro-1-methylpiperidin-4-yl]amino}-1-(2,2,2-trifluoroethyl)-1H-indol-2-yl)-1,2,4-oxadiazol-5-yl]methyl}-1H-pyrrole-3-carboxamide] | * (* = 0 μM ≤ SC150 < 0.1 μM) |
| CC1(n2ccc(C(=O)NCc3nc(-c4cc5c(N[C@@H]6CCOC[C@@H]6F)cccc5n4CC(F)(F)F)no3)c2)CCOCC1 (stereo in doubt) [Compound 491B] | * (* = 0 μM ≤ SC150 < 0.1 μM) |
| CN1CC[C@@H](Nc2cccc3c2cc(-c2noc(CNC(=O)c4cncn4C(C)(C)C)n2)n3CC(F)(F)F)[C@@H](F)C1 [Compound 270B, 1-tert-butyl-N-{[3-(4-{[(3S,4R)-3-fluoro-1-methylpiperidin-4-yl]amino}-1-(2,2,2-trifluoroethyl)-1H-indol-2-yl)-1,2,4-oxadiazol-5-yl]methyl}-1H-imidazole-5-carboxamide] | * (* = 0 μM ≤ SC150 < 0.1 μM) |
| CN1CC[C@@H](Nc2cccc3c2cc(-c2noc(CNC(=O)c4ccn(CC(F)F)c4)n2)n3CC(F)(F)F)[C@@H](F)C1 [Compound 250B, 1-(2,2-difluoroethyl)-N-{[3-(4-{[(3S,4R)-3-fluoro-1-methylpiperidin-4-yl]amino}-1-(2,2,2-trifluoroethyl)-1H-indol-2-yl)-1,2,4-oxadiazol-5-yl]methyl}-1H-pyrrole-3-carboxamide] | * (* = 0 μM ≤ SC150 < 0.1 μM) |
| CC(C)(C)n1cc(C(=O)NCc2nc(-c3cc4c(N[C@H]5CCCNC5)cccc4n3CC(F)(F)F)no2)cn1 [Compound 353B] | * (* = 0 μM ≤ SC150 < 0.1 μM) |

Next, values leading:

| Y220C SC150 (μM) | SMILES |
| --- | --- |
| * (* = 0 μM ≤ SC150 < 0.1 μM) | CCOCC1(n2ccc(C(=O)NCc3nc(-c4cc5c(N[C@@H]6CCN(C)C[C@@H]6F)cccc5n4CC(F)(F)F)no3)c2)CC1 [Compound 481B, 1-[1-(ethoxymethyl)cyclopropyl]-N-{[3-(4-{[(3S,4R)-3-fluoro-1-methylpiperidin-4-yl]amino}-1-(2,2,2-trifluoroethyl)-1H-indol-2-yl)-1,2,4-oxadiazol-5-yl]methyl}-1H-pyrrole-3-carboxamide] |
| ** (** = 0.1 μM ≤ SC150 < 0.5 μM) | CN1CCC(Nc2cccc3c2cc(-c2nnc(CNC(=O)c4cccnc4)s2)n3CC(F)(F)F)CC1 [Compound 42B, N-[(5-{4-[(1-methylpiperidin-4-yl)amino]-1-(2,2,2-trifluoroethyl)-1H-indol-2-yl}-1,3,4-thiadiazol-2-yl)methyl]pyridine-3-carboxamide] |
| ** (** = 0.1 μM ≤ SC150 < 0.5 μM) | COc1cccc(C(=O)NCc2nnc(-c3cc4c(N[C@H]5CCN(C)C[C@H]5F)cccc4n3CC(F)(F)F)o2)c1 (racemic) [Compound 119B, (+/−)-N-{[5-(4-{[(3R,4S)-3-fluoro-1-methylpiperidin-4-yl]amino}-1-(2,2,2-trifluoroethyl)-1H-indol-2-yl)-1,3,4-oxadiazol-2-yl]methyl}-3-methoxybenzamide] |
| * (* = 0 μM ≤ SC150 < 0.1 μM) | CN1CCC(n2cc(C(=O)NCc3nc(-c4cc5c(N[C@@H]6CCN(C)C[C@@H]6F)cccc5n4CC(F)(F)F)no3)cn2)C1 (stereo partly drawn) [Compound 349B, N-{[3-(4-{1[(3S,4R)-3-fluoro-1-methylpiperidin-4-yl]amino}-1-(2,2,2-trifluoroethyl)-1H-indol-2-yl)-1,2,4-oxadiazol-5-yl]methyl}-1-(1-methylpyrrolidin-3-yl)-1H-pyrazole-4-carboxamide] |
| * (* = 0 μM ≤ SC150 < 0.1 μM) | COCC(C)n1ccc(C(=O)NCc2nc(-c3cc4c(N[C@@H]5CCN(C)C[C@@H]5F)cccc4n3CC(F)(F)F)no2)c1 (stereo partly drawn) [Compound 289B, N-{[3-(4-{[(3S,4R)-3-fluoro-1-methylpiperidin-4-yl]amino}-1-(2,2,2-trifluoroethyl)-1H-indol-2-yl)-1,2,4-oxadiazol-5-yl]methyl}-1-(1-methoxypropan-2-yl)-1H-pyrrole-3-carboxamide] |
| * (* = 0 μM ≤ SC150 < 0.1 μM) | CN1CC[C@@H](Nc2cccc3c2cc(-c2cc(CNC(=O)c4cnn(C(C)(C)C)c4)on2)n3CC(F)(F)F)[C@@H](F)C1 [Compound 554B, 1-tert-butyl-N-{[3-(4-{[(3S,4R)-3-fluoro-1-methylpiperidin-4-yl]amino}-1-(2,2,2-trifluoroethyl)-1H-indol-2-yl)-1,2-oxazol-5-yl]methyl}-1H-pyrazole-4-carboxamide] |
| * (* = 0 μM ≤ SC150 < 0.1 μM) | CN1CCC(Nc2cccc3c2cc(-c2nnc(CNC(=O)c4ccc5cn[nH]c5c4)s2)n3CC(F)(F)F)CC1 [Compound 69B, N-[(5-{4-[(1-methylpiperidin-4-yl)amino]-1-(2,2,2-trifluoroethyl)-1H-indol-2-yl}-1,3,4-thiadiazol-2-yl)methyl]-1H-indazole-6-carboxamide] |
| * (* = 0 μM ≤ SC150 < 0.1 μM) | COCC(C)(C)n1cc(C(=O)NCc2nc(-c3cc4c(N[C@@H]5CCN(C(C)(C)C)C[C@@H]5F)cccc4n3CC(F)(F)F)no2)cn1 [Compound 412B, N-{[3-(4-{[(3S,4R)-1-tert-butyl-3-fluoropiperidin-4-yl]amino}-1-(2,2,2-trifluoroethyl)-1H-indol-2-yl)-1,2,4-oxadiazol-5-yl]methyl}-1-(1-methoxy-2-methylpropan-2-yl)-1H-pyrazole-4-carboxamide] |
| * (* = 0 μM ≤ SC150 < 0.1 μM) | Cn1ccc(C(=O)NCc2nc(-c3cc4c(N[C@H]5CCN(C(C)(C)C)C[C@H]5F)cccc4n3CC(F)(F)F)no2)c1 [Compound 398B, N-{[3-(4-{[(3R,4S)-1-tert-butyl-3-fluoropiperidin-4-yl]amino}-1-(2,2,2-trifluoroethyl)-1H-indol-2-yl)-1,2,4-oxadiazol-5-yl]methyl}-1-methyl-1H-pyrrole-3-carboxamide] |
| * (* = 0 μM ≤ SC150 < 0.1 μM) | CN1CC[C@@H](Nc2cccc3c2cc(-c2noc(CNC(=O)c4cnn(C5CCOCC5)c4)n2)n3CC(F)(F)F)[C@@H](F)C1 [Compound 325B, N-{[3-(4-{[(3S,4R)-3-fluoro-1-methylpiperidin-4-yl]amino}-1-(2,2,2-trifluoroethyl)-1H-indol-2-yl)-1,2,4-oxadiazol-5-yl]methyl}-1-(oxan-4-yl)-1H-pyrazole-4-carboxamide] |
| * (* = 0 μM ≤ SC150 < 0.1 μM) | Cn1cc(C(=O)NCc2nc(-c3cc4c(N[C@@H]5CCN(C(C)(C)C)C[C@H]5F)cccc4n3CC(F)(F)F)no2)cn1 (racemic) [Compound 407B, N-{[3-(4-{[(3R,4R)-1-tert-butyl-3-fluoropiperidin-4-yl]amino}-1-(2,2,2-trifluoroethyl)-1H-indol-2-yl)-1,2,4-oxadiazol-5-yl]methyl}-1-methyl-1H-pyrazole-4-carboxamide] |
| * (* = 0 μM ≤ SC150 < 0.1 μM) | COc1ccccc1C(=O)NCc1nnc(-c2cc3c(NC4CCN(C)CC4)cccc3n2CC(F)(F)F)s1 [Compound 66B, 2-methoxy-N-[(5-{4-[(1-methylpiperidin-4-yl)amino]-1-(2,2,2-trifluoroethyl)-1H-indol-2-yl}-1,3,4-thiadiazol-2-yl)methyl]benzamide] |
| * (* = 0 μM ≤ SC150 < 0.1 μM) | CCn1ccc(C(=O)NCc2nc(-c3cc4c(N[C@H]5CCN(C)C[C@H]5F)cccc4n3CC(F)(F)F)no2)c1 [Compound 187B, 1-ethyl-N-{[3-(4-{[(3R,4S)-3-fluoro-1-methylpiperidin-4-yl]amino}-1-(2,2,2-trifluoroethyl)-1H-indol-2-yl)-1,2,4-oxadiazol-5-yl]methyl}-1H-pyrrole-3-carboxamide] |

Same assay, conditions: concentration to increase DNA binding by […], incubated at either 27° C. or 29° C. for 60 min

| SMILES | SC150 (μM) |
| --- | --- |
| N#Cc1cccc(-c2cc3c(NC4CCS(=O)(=O)CC4)cccc3n2CC(F)(F)F)c1 [Compound 10A, 3-{4-[(1,1-dioxo-1λ^6-thian-4-yl)amino]-1-(2,2,2-trifluoroethyl)-1H-indol-2-yl}benzonitrile] | ++++ (++++ = 10 μM ≤ SC150 < 35 μM) |
| CNCc1ccc(-c2cc3c(NC4CCS(=O)(=O)CC4)cccc3n2CC(F)(F)F)cc1 [Compound 3A, 4-[(2-{4-[(methylamino)methyl]phenyl}-1-(2,2,2-trifluoroethyl)-1H-indol-4-yl)amino]-1λ^6-thiane-1,1-dione] | +++ (+++ = 5 μM ≤ SC150 < 10 μM) |
